Here are results for 3 compounds from US20260294874A1, “COMPOSITIONS COMPRISING MODULATORS OF RIBONUCLEOPROTEIN GRANULE FORMATION AND DISSOLUTION AND METHODS OF USE THEREOF” (University of Virginia Patent Foundation, priority 2023, published 2026).

Common to all, as to type: cell-based
One assay addresses T1, HNRPK Y72 (Homo sapiens, UniProt P61978).
T1 construct: liganded site Y72
As to the kind of experiment: Competitive ABPP SILAC LC-MS/MS chemical proteomics, HNRPK Y72. The settings on record: DMSO (light)/ligand (heavy). The procedure:
(§1) Preparation of SILAC proteomes for LC-MS/MS analysis. SILAC cell proteomes were fractionated to collect the supernatant and normalized to 2.3 mg/mL in PBS. ‘Heavy’ and ‘light’ proteomes were aliquoted (427 μL) and probe-modified proteins were conjugated to desthiobiotin-PEG-3-azide using copper-catalyze azide-alkyne cycloaddition, trypsinized into peptides using Trypsin/Lys-C Mix (Catalog No. V5071; Promega Corporation, Madison, Wisconsin, United States of America), enriched using PIERCE™ Avidin Agarose brand beads (Catalog No. 20219; Thermo Fisher Scientific Inc., Waltham, Massachusetts. United States of America), and prepared for nano-electrospray ionization-LC-MS/MS analysis as previously described in Hahm et al., 2020.
(§2) Data Analysis—Chemical Proteomics. Identification and analysis of peptides and proteins using LC-MS was accomplished using bioinformatics software and quality control parameter protocols as previously described in Hahm et al., 2020.
(§3) We performed quantitative liquid-chromatography tandem mass spectrometry (LC-MS/MS) chemical proteomic studies to identify the target protein and binding site(s) of SuTEx fragments with RNP granule modulating activity. […]
(§4) We detected ~8,700 probe-modified sites (Tyr and Lys) in our aggregate HeLa and HEK293T chemical proteomic analyses. […]

Assay [1] concerns stress granules (G3BP1 foci) in HeLa cells. Put plainly: Immunofluorescence phenotypic screen for stress granules (α-G3BP1) in stressed HeLa cells. Conditions: 2 h. How it is done:
SuTEx compound treatments. Prior to treatments, cells were washed twice with warm phosphate-buffered saline (PBS) and exchanged with serum-free DMEM (supplemented with 1% L-glutamine) for at least 30 minutes at 37° C. with 5% CO2. Compounds were then added as 1000×DMSO stocks (10 μL for 10 cm dishes and 3 μL for 6-well dishes), plates were mixed gently, and cells were incubated for two hours. All compounds were thoroughly vortexed and sonicated for five minutes prior to addition to ensure complete solvation. For microscopy experiments, cultures were seeded at 150,000 cells in 3 mL of DMEM in 6-well THERMO SCIENTIFIC™ BIOLITE™ brand microwell plates (Catalog No. 12556004; Thermo Fisher Scientific Inc., Waltham, Massachusetts. United States of America). For collection, media was aspirated, and cells were washed once with cold PBS before scraping from plates. Cells were centrifuged at 500×g at 4° C. for 5 minutes and supernatant was removed. Cell pellets were resuspended in cold PBS (1 mL) and centrifuged at 1,400×g at 4° C. for 3 minutes. Supernatant was again removed, and pellets were then snap-frozen in liquid nitrogen and stored at −80° C. until needed.
Immunofluorescence. Immunofluorescence (IF) of HEK293T cells was performed as previously described in Ciancone et al., 2022. HeLa cells were seeded at 9.0×10^4 in a 24-well plate with 12-mm glass coverslips. The next day, the cells were treated with 25 μM SuTEx probe for 2 hours in DMEM medium without FBS. The cells were then treated with 75 μM NaAsO2 for 30 minutes and fixed with 3% paraformaldehyde in PBS for 15 minutes at room temperature (RT) and washed with PBS twice. The fixed cells were permeabilized with PBST (0.1% Triton X-100) for 15 minutes at room temperature and blocked with 5% goat serum in PBST for 30 minutes at RT. The cells were incubated with anti-G3BP1 antibody H-10 (Catalog No. sc-365338 at 1:200 dilution; Santa Cruz Biotechnology, Inc., Dallas, Texas, United States of America) for 2 hours at RT and washed with PBST (0.1% Tween-20) for 5 minutes three times. Next, cells were incubated with goat anti-mouse Alexa 594 antibody (Catalog No. 115-585-003 at 1:800 dilution; Jackson ImmunoResearch, West Grove, Pennsylvania, United States of America) for 30 minutes at RT. The cells were washed twice with PBST, stained with Hoechst 33342 (Catalog No. H3570 at […]; Thermo Fischer Scientific) in PBST for 5 minutes, and washed with PBS twice for 5 minutes. The coverslips were mounted in PROLONG™ Gold AntiFade Mountant (Catalog No. P36930, Thermo Fisher Scientific) and imaged using NIS Elements AR software and a Nikon Eclipse Ti microscope equipped with a ×100 objective and CMOS camera. […] A CellProfiler pipeline was developed to quantify the number of stress granules under each condition. Briefly, cells were recognized as blue^+ (nuclei) red^+ (G3BP1) objects, and the red^+ granules that meet the shape and size threshold were identified and counted. Cells on the border of linages were excluded from the analysis for more accurate quantification.
We used immunofluorescence (IF) detection for phenotypic screening of SuTEx compound activity on stress-induced PB and SG levels in cells (FIG. 1B). PBs were induced through glucose deprivation of HEK293T cells and detected by immunofluorescence with anti-enhancer of mRNA-decapping protein 4 (EDC4) as previously described (Kedersha & Anderson, 2007; Ciancone et al., 2022) (~4 vs 2 PBs/cell in −glucose and +glucose conditions, respectively; FIG. 8). EDC4 is an established PB marker for mammalian cells and is important for PB formation (Kedersha & Anderson, 2007; Luo et al., 2018). SGs were induced in HeLa cells by [COMPOUND LEFT OUT] treatments and detected by fluorescent staining with anti-Ras GTPase-activating protein-binding protein 1 (G3BP1) antibody (75 μM [COMPOUND LEFT OUT], 30 min; FIG. 9). G3BP1 foci have been used in previous IF studies to identify SGs in cells (Kedersha & Anderson, 2007). […]

Another assay addresses T2, HSPB1 K123 (Homo sapiens, UniProt P04792).
T2 construct: endogenous in cells; host or cells: SILAC cells (HeLa and HEK293T are named; HeLa inferred for HSPB1/EKT179, as SG modulators were profiled in HeLa)
Put plainly: Competitive ABPP SILAC LC-MS/MS chemical proteomics, HSPB1 K123. The settings on record: 25 μM, 2 h; HHS-465 100 μM; DMSO (light)/ligand (heavy). The procedure: as §1, §2, §3, §4

A further assay addresses T3, recombinant EDC3 (Homo sapiens, UniProt Q96F86).
T3 construct: FLAG; expressed in transfected cells; host or cells: HEK293T
T3 sequence (Q96F86 1-508): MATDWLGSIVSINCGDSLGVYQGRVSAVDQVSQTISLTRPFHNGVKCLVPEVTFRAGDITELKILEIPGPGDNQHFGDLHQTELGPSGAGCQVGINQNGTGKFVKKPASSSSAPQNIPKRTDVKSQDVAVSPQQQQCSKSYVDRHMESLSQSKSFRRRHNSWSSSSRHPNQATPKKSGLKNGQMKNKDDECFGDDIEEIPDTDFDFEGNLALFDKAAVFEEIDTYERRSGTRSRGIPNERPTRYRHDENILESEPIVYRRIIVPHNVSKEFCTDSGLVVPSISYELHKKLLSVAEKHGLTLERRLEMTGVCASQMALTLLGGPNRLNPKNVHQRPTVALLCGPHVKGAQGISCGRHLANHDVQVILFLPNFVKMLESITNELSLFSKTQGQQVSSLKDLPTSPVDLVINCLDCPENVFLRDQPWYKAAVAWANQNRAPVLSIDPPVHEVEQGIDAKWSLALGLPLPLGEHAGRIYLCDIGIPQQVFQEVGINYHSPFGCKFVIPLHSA
Put plainly: Competitive gel-based ABPP, HHS-465 probe labeling of recombinant EDC3 in HEK293T cells. The settings on record: 25 μM, 2 h (FIG. 4F); 0.1-100 μM for concentration dependence (FIG. 4D); HHS-465 100 μM, 1 h, RT. An excerpt:
FIGS. 4A-4F. Discovery of a SuTEx ligand for the hyper-reactive EDC3 Y475 site. (FIG. 4A) Overlap of liganded sites from SuTEx PB modulators with reported RNA granule induction-sensitive lysine and tyrosine sites (RISKYs; Ciancone et al., 2022). The five overlapping sites were further compared to previously reported hyper-RISKY sites (Ciancone et al., 2022) resulting in the identification of the tyrosine-475 (Y475) site on EDC3. (FIG. 4B) Representative immunofluorescence images depicting decreased PBs and increased SGs in AHL-030-treated cells under stress conditions. EKT235 is shown as a negative control. See FIGS. 8 and 9 for additional details. (FIG. 4C) Representative MS1 extracted ion chromatograms (EICs) showing EDC3 Y475 (i.e., amino acid 2 of the peptide sequence […]; SEQ ID NO: 1, which corresponds to amino acids 474-500 of the human enhancer of mRNA-decapping protein 3 isoform 1 polypeptide of GENBANK® Accession No. NP_001135915.1) is liganded by AHL-030 but not EKT235 [SILAC ratio or SR>2 for DMSO vehicle (light, red)/SuTEx fragment ligand (heavy, blue) treatment conditions]. Enrichment (HHS-465/DMSO) and 1:1 (HHS-465/HHS-465) controls are shown. SRs are calculated as the integrated area under the curve ratio of light-to-heavy peptide. Data are representative of n=2-3 biologically independent replicates. […] EDC3-expressing HEK293T cells were pretreated with varying concentrations of AHL-030 (0.1-100 μM, 2 hours) followed by lysis and probe labeling of soluble proteomes with HHS-465 (100 μM, 1 h, RT). The in situ IC50 for EDC3 probe labeling inhibition by AHL-030 was estimated to be ~6 μM. […] Data shown are mean±SEM and representative of n=3 biologically independent replicates. […] Western blots comparing recombinant expression of EDC3 (α-FLAG) and loading controls (α-GAPDH) are shown. Data are representative of n=2 biologically independent replicates.
Among the candidate PB-modulating SuTEx compounds, we focused on AHL-030 because of its PB-inhibitory, SG-enhancing activity in stressed cells and ability to ligand the EDC3 Y475 site (SR >2; FIGS. 4B and 4C). Importantly, we identified a restricted number of reproducibly liganded sites (7 in total) in addition to EDC3 Y475 in chemoproteomic profiling studies of AHL-030 (FIG. 12). We further confirmed AHL-030 as an EDC3 ligand using competitive activity-based protein profiling (ABPP; Grams & Hsu, 2022). Recombinant EDC3-expressing HEK293T cells were treated with a panel of RNP granule modulators including AHL-030 and the negative control compound EKT235 to evaluate structure-activity relationships (SAR, 25 μM compounds, 2 h). Cells were lysed and soluble proteomes labeled with HHS-465 (100 μM, 1 h, RT) followed by CuAAC with rhodamine-azide, SDS-PAGE and in-gel fluorescence scanning. […] Using the in vitro IC50, we calculated the lipophilic efficiency (LipE) of AHL-030 to be ~7, which falls in the range of acceptable lipophilicity in relation to potency (Leeson & Springthorpe, 2007).

For the next assay, the target named is T4, EDC3 Y475 (Homo sapiens, UniProt Q96F86).
T4 sequence (Q96F86 1-508): T3 sequence (Q96F86 1-508)
Put plainly: Competitive ABPP SILAC LC-MS/MS chemical proteomics, EDC3 Y475. Conditions: glucose-deprived HEK293T cells, 25 μM, 2 h. How it is done: as §1, §2
We performed quantitative liquid-chromatography tandem mass spectrometry (LC-MS/MS) chemical proteomic studies to identify the target protein and binding site(s) of SuTEx fragments with RNP granule modulating activity. […] SILAC light and heavy cells (HEK293T and HeLa) were treated with experimental conditions used for phenotypic screening including the SuTEx ligand pretreatment (25 μM, 2 h) followed by PB (glucose-deprivation, 15 min) and SG induction (75 μM [COMPOUND LEFT OUT], 30 min). Afterwards, cells were lysed, soluble proteomes treated with HHS-465 SuTEx probe (100 μM, 1 h), a global Tyr/Lys-reactive probe used previously for RNP granule investigations (Ciancone et al., 2022), and samples processed to probe-modified peptides for LC-MS/MS analysis as previously reported (Huang et al., 2021), shown in FIG. 10.
as §4

Entries after “also recorded” stand apart in the source; their conditions may differ.

T2 sequence (P04792 whole entry): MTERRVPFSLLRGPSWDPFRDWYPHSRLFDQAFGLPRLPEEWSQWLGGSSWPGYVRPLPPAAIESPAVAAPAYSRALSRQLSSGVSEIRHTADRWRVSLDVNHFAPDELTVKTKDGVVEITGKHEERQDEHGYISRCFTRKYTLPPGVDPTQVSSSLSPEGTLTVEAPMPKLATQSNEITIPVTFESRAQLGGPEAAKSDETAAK

Take `O=S(=O)(c1ccc(C(F)(F)F)cc1)n1cc(-c2ccc(F)cc2F)nn1` [EKT166, 4-(2,4-Difluorophenyl)-1-((4-(trifluo•·omethyl)phenyl)sulfonyl)-1H-1,2,3-triazole]: the “SILAC ratio (SR), HNRPK Y72” value on HNRPK Y72 is on record as over 2. Also, in assay [1] (25 μM), the “effect on SGs (in words)” value was “enriched activity; also recorded: inhibited SGs”. Besides, the inhibition at 25 µM in assay [1] (Homo sapiens, read-out: reduction/inhibition of SGs/cell) was over 70%.

On to `O=S(=O)(C1CC1)n1cc(-c2cccc(F)c2)nn1` [EKT179, 1-(Cyclopropylsulfonyl)-4-(3-fluorophenyl)-1H-1,2,3-triazole], for which, at HSPB1 K123, the “SILAC ratio (SR), HSPB1 K123” value is on record as over 2.

For `O=S(=O)(C1CC1)n1cc(-c2ccc(-c3ccccc3)cc2)nn1` [EKT235, 4-([1,1′-Biphenyl]-4-yl)-1-(cyclopropylsulfonyl)-1H-1,2,3-triazole], the “inhibition of HHS-465 probe labeling of recombinant EDC3 (in words)” value at recombinant EDC3 was “largely inactive”. Moreover, the “liganding of EDC3 Y475 (in words)” value at EDC3 Y475 is listed as “not”.
